Data on twelve compounds can be found in patent publication US12552755B2, “Cinnamic amide derivative having FXR activating effect, pharmaceutical composition containing the same as active ingredient, and method for preparing the same” (KYUNGSUNG UNIVERSITY INDUSTRY COOPERATION FOUNDATION, priority 2019, dated 2026).

The assay deals with T1, farnesol X receptor (FXR) (Homo sapiens, UniProt Q96RI1).
T1 construct: endogenous in cells; host or cells: HepG2
T1 sequence (Q96RI1 1-486): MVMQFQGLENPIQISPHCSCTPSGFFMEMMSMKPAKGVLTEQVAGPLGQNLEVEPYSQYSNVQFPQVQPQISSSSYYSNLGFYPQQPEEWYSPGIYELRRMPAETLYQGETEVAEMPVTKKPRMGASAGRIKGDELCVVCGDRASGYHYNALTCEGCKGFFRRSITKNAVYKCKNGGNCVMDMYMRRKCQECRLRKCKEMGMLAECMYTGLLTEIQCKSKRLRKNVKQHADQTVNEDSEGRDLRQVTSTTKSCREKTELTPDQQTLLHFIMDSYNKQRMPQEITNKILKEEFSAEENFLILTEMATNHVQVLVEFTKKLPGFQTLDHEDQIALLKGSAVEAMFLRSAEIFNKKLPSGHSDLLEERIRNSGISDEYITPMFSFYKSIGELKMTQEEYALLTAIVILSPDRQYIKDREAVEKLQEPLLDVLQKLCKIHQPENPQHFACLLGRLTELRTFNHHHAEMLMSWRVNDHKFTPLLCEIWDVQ
In words: Farnesol X receptor (FXR) reporter gene assay (dual luciferase) in HepG2 cells. The assay is classed as cell-based. Particulars: for fold induction at 10 µM: HepG2 cells, drug treatment 24 hours, firefly/renilla luciferase ratio, Con = 1.00; for FXR activating effect compared with GW4064: statement on Table 4 data. How it is done:
HepG2 cells were purchased from ATCC (Manassas, VA, USA) and cultured in Dulbecco's modified Eagle's medium (DMEM; Hyclone) containing 10% fetal bovine serum (FBS, Hyclone, Logan, UT, USA), 50 units/mL penicillin (Hyclone) and 50 μg/mL streptomycin (Hyclone). All cells were cultured to have a confluency of about 80% to 90% under the conditions of 37° C. and 5% Co2.
In order to measure FXR transcription factor activity, HepG2 cells (1×10^5 cells/well) were cultured in a 48-well cell culture plate (SPL Life Science Co., Gyeonggido, Korea) for 20 hours and then transduced using Lipofectamin L3000 (Invitrogen, San Diego, CA, USA). Luciferase is an enzyme that catalyzes light-emitting reactions. A plasmid in which the firefly luciferase gene was fused to farnesol X receptor (FXR) and a plasmid in which the renilla luciferase gene was fused to thymidine kinase (TK) were used for transduction. Reacted were 25 μL of serum and antibiotic-free Opti-MEM® (Life Technologies, Grand Island, NY) and 0.5 μL of Lipofectamin L3000 per 0.5 μg of FXR-firefly luciferase plasmid and 10 ng of TK-renilla luciferase plasmid, and the cells were reacted with the reaction mixture for 24 hours. Thereafter, DMEM medium containing 0.1% serum was treated with a drug for 24 hours. After the reaction was completed, the drug-treated culture medium was discarded, and lysis buffer was added at 0.4 ml/well to remove the cells, then the cells were dispensed into a 96-well white plate (SPL Life Science Co.), and the luminescence level was measured using the Dual-glo Luciferase Assay System (Promega, Madison, WI, USA). For the firefly luciferase activity (to see the level of FXR expression) and renilla luciferase activity (to provide a reference value by showing constant expression), the luminescence level was measured using the GloMax Multi Detection System (Promega) and then the relative ratio (firefly luciferase activity/renilla luciferase activity) was calculated.
(In general: A reporter such as luciferase makes a cellular process visible.)

Structures are written as SMILES.

One may read the fold induction as the ratio of treated to control signal.

On to `Cc1onc(-c2ccccc2)c1COc1ccc(/C=C/C(=O)N[C@@H](C)C(=O)O)cc1` [KS-030, (E)-(3-(4-((5-methyl-3-phenylisoxazol-4-yl)methoxy)phenyl)acryloyl)-L-alanine], for which the fold induction at 10 µM turned out to be 0.82. Turning to `CCOC(=O)[C@@H](NC(=O)/C=C/c1ccc(OCc2c(-c3c(Cl)cccc3Cl)noc2C)cc1)C(C)C` [KS-032, ethyl (E)-(3-(4-((3-(2,6-dichlorophenyl)-5-methylisoxazol-4-yl)methoxy)phenyl)acryloyl)-L-valinate], the fold induction at 10 µM came to 1.89.

On to `CCOC(=O)[C@@H](NC(=O)/C=C/c1ccc(OCc2c(-c3ccccc3)noc2C)cc1)C(C)C` [KS-033, ethyl (E)-(3-(4-((5-methyl-3-phenylisoxazol-4-yl)methoxy)phenyl)acryloyl)-L-valinate], for which the fold induction at 10 µM came out at 0.93. As for `CC(C)c1onc(-c2c(Cl)cccc2Cl)c1COc1ccc(/C=C/C(=O)N[C@H](C(=O)O)C(C)C)cc1` [KS-034, (E)-(3-(4-((3-(2,6-dichlorophenyl)-5-isopropylisoxazol-4-yl)methoxy)phenyl)acryloyl)-L-valine], the fold induction at 10 µM turned out to be 8.91 and the “FXR activating effect compared with GW4064” value is reported as “superior to GW4064”. In the case of `Cc1onc(-c2c(Cl)cccc2Cl)c1COc1ccc(/C=C/C(=O)N[C@H](C(=O)O)C(C)C)cc1` [KS-035, (E)-(3-(4-((3-(2,6-dichlorophenyl)-5-methylisoxazol-4-yl)methoxy)phenyl)acryloyl)-L-valine], the fold induction at 10 µM is 1.65. Consider `Cc1onc(-c2ccccc2)c1COc1ccc(/C=C/C(=O)N[C@H](C(=O)O)C(C)C)cc1` [KS-036, (E)-(3-(4-((5-methyl-3-phenylisoxazol-4-yl)methoxy)phenyl)acryloyl)-L-valine], for which the fold induction at 10 µM stood at 1.24. With `COC(=O)[C@H](Cc1ccccc1)NC(=O)/C=C/c1ccc(OCc2c(-c3c(Cl)cccc3Cl)noc2C(C)C)cc1` [KS-037, methyl (E)-(3-(4-((3-(2,6-dichlorophenyl)-5-isopropylisoxazol-4-yl)methoxy)phenyl)acryloyl)-L-phenylalaninate], the fold induction at 10 µM was found to be 7.95 and the “FXR activating effect compared with GW4064” value is on record as “superior to GW4064”. As for `COC(=O)[C@H](Cc1ccccc1)NC(=O)/C=C/c1ccc(OCc2c(-c3c(Cl)cccc3Cl)noc2C)cc1` [KS-038, methyl (E)-(3-(4-((3-(2,6-dichlorophenyl)-5-methylisoxazol-4-yl)methoxy)phenyl)acryloyl)-L-phenylalaninate], the fold induction at 10 µM turned out to be 2.21. Still for that read-out and setting: under `COC(=O)[C@H](Cc1ccccc1)NC(=O)/C=C/c1ccc(OCc2c(-c3ccccc3)noc2C)cc1` [KS-039, methyl (E)-(3-(4-((5-methyl-3-phenylisoxazol-4-yl)methoxy)phenyl)acryloyl)-L-phenylalaninate] stands 1.06. In the case of `CC(C)c1onc(-c2c(Cl)cccc2Cl)c1COc1ccc(/C=C/C(=O)N[C@@H](Cc2ccccc2)C(=O)O)cc1` [KS-040, (E)-(3-(4-((3-(2,6-dichlorophenyl)-5-isopropylisoxazol-4-yl)methoxy)phenyl)acryloyl)-L-phenylalanine], the fold induction at 10 µM was found to be 9 and the “FXR activating effect compared with GW4064” value was “superior to GW4064”. For the compound `Cc1onc(-c2c(Cl)cccc2Cl)c1COc1ccc(/C=C/C(=O)N[C@@H](Cc2ccccc2)C(=O)O)cc1` [KS-041, (E)-(3-(4-((3-(2,6-dichlorophenyl)-5-methylisoxazol-4-yl)methoxy)phenyl)acryloyl)-L-phenylalanine], the fold induction at 10 µM worked out at 3.23. Still for that read-out and setting: the value for `Cc1onc(-c2ccccc2)c1COc1ccc(/C=C/C(=O)N[C@@H](Cc2ccccc2)C(=O)O)cc1` [KS-042, (E)-(3-(4-((5-methyl-3-phenylisoxazol-4-yl)methoxy)phenyl)acryloyl)-L-phenylalanine] was 1.41.
